Data published in patent US11427528B2 (Zhejiang University of Technology, priority 2016, dated 2022).
“Also recorded” adds a separate entry of the source. Read-outs that look alike come from different tables or passages of the source.

What was measured:
[1] = Stability experiment, light exposure (XRPD); type: physicochemical; details: 4500±500 lx, 25° C., open petri dish, XRPD compared with 0th day
Procedure: (§1) The instrument used for collecting X-ray powder diffraction (XRPD) patterns is Bruker D8 Advance diffractometer. The samples are tested at room temperature under the following conditions: 2θ scan range, 3-40°; step size, 0.02°/step; speed, 0.2 s/step.
(§2) They were placed at 4500±500 lx light exposure, and 90±5% RH humidity chamber at 25° C., respectively. The XRPD results of the 5th day and 10th day were compared with that of the 0th day.

[2] = Grinding test in ball mill (XRPD); type: physicochemical; details: 20 Hz, 100 mg, XRPD compared with unground sample
Procedure: as §1

[3] = Stability experiment, high humidity (XRPD); type: physicochemical; details: 90±5% RH, 25° C., open petri dish, XRPD compared with 0th day
Procedure: as §1, §2

[4] = cited from earlier work
[5] = Storage stability at room temperature; type: physicochemical; details: 3 months

Compound	Crystalline form after light exposure for 10 days [1]	Crystalline form after grinding for 10 min [2]	Crystalline form after high humidity for 10 days [3]	Form change at room temperature ([4]; in one day at room temperature)	Form change at room temperature ([4]; after two days at room temperature)	Form change after mechanical grinding ([4]; mechanical grinding)	Stability at room temperature [5]
CC(C)OC(=O)C(C)(C)Oc1ccc(C(=O)c2ccc(Cl)cc2)cc1 [Form I, reference compound]	Form I	Form I	Form I	–	–	–	–
CC(C)OC(=O)C(C)(C)Oc1ccc(C(=O)c2ccc(Cl)cc2)cc1 [Form III]	–	–	–	transformed to Form II and Form I	–	–	–
CC(C)OC(=O)C(C)(C)Oc1ccc(C(=O)c2ccc(Cl)cc2)cc1 [Form II]	–	–	–	–	transformed to Form I	transformed to Form I	–
CC(C)OC(=O)C(C)(C)Oc1ccc(C(=O)c2ccc(Cl)cc2)cc1 [Form IV]	does not change its crystalline form; also recorded: Form IV	does not change its crystalline form; also recorded: Form IV	does not change its crystalline form; also recorded: Form IV	–	–	–	remains stable
